Article PMC4687966 (Journal of medicinal chemistry, 2015)

Columns and labels:
Mtb BioA [1] = target: T1, Mtb BioA (Mycobacterium tuberculosis, UniProt P9WQ81); format: binding; conditions: for KA / ΔH / −TΔS / ΔG: 25 °C; for KA / ΔH: 100 µM BioA, pH 7.5; for −TΔS: from ΔG = ΔH − TΔS; for ΔG: ΔG = −RT ln KA; for LE (ligand efficiency): LE = (−ΔG)/N, N = number of non-hydrogen atoms
Mtb BioA [2] = target: T1, Mtb BioA; experiment: Differential scanning fluorimetry; format: binding; conditions: DSF; holo BioA Tm 85 °C

T1 sequence (P9WQ81 whole entry): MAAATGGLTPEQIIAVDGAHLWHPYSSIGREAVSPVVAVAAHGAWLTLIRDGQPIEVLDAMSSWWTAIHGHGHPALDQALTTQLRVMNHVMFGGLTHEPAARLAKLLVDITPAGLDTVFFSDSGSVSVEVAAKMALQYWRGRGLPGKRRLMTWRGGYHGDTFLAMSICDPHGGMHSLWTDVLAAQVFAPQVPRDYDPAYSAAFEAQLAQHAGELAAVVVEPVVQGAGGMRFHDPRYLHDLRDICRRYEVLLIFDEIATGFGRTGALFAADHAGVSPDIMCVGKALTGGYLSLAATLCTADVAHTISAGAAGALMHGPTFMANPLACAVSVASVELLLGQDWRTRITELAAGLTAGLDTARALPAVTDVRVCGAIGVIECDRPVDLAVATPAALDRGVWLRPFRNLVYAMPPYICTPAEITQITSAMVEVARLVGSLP

| Compound | KA (Mtb BioA [1]; ITC) | ΔH (Mtb BioA [1]; ITC) | −TΔS (Mtb BioA [1]; ITC) | ΔG (Mtb BioA [1]; ITC) | LE (ligand efficiency) (Mtb BioA [1]) | Tm of BioA with compound (Mtb BioA [2]) | Improvement in KD over the parent fragment F5 (Mtb BioA [1]; ITC) | ΔH (enthalpic stabilization) (Mtb BioA [1]; ITC) | −TΔS (binding entropy) (Mtb BioA [1]; ITC) |
| --- | --- | --- | --- | --- | --- | --- | --- | --- | --- |
| NC(=O)c1ccc(-c2ccccn2)s1 [F2] | 14.6 ± 1.3 10^4 M^−1 | -5.4 ± 0.0 kcal/mol | -1.6 ± 0.1 kcal/mol | -7.0 ± 0.1 kcal/mol | 0.50 |  |  |  |  |
| NC(=O)c1ccc(-n2ccnc2)cc1 [F3] | 6.8 ± 1.3 10^4 M^−1 | -6.3 ± 0.2 kcal/mol | -0.2 ± 0.1 kcal/mol | -6.6 ± 0.1 kcal/mol | 0.47 |  |  |  |  |
| NCc1ccc(Cn2cc(Cl)cn2)cc1 [F5.1] | 14.9 ± 1.7 10^4 M^−1 | -11.3 ± 0.5 kcal/mol | 4.3 ± 0.5 kcal/mol | -7.0 ± 0.1 kcal/mol | 0.47 | 73 °C | 1.7 fold |  |  |
| CNCc1ccc(Cn2cccn2)cc1 [F5] | 8.6 ± 0.1 10^4 M^−1 | -12.9 ± 0.6 kcal/mol | 6.2 ± 0.6 kcal/mol | -6.7 ± 0.0 kcal/mol | 0.45 |  |  | -12.9 kcal/mol | +6.2 kcal/mol |
| O=C(c1ccccc1)C1CCNCC1 [F7] | 2.4 ± 0.4 10^4 M^−1 | -4.9 ± 0.2 kcal/mol | -1.1 ± 0.2 kcal/mol | -6.0 ± 0.1 kcal/mol | 0.43 |  |  |  |  |
| CC(=O)Nc1ccc2c(c1)C=CC2=O [F9] | 4.6 ± 0.3 10^4 M^−1 | -3.3 ± 0.2 kcal/mol | -3.0 ± 0.2 kcal/mol | -6.3 ± 0.0 kcal/mol | 0.45 |  |  |  |  |
| NCc1nc2ccccc2s1 [F10] | 3.3 ± 0.5 10^4 M^−1 | -1.4 ± 0.2 kcal/mol | -4.8 ± 0.1 kcal/mol | -6.1 ± 0.1 kcal/mol | 0.55 |  |  |  |  |
